From patent US6890361B2, “Modification of printed and dyed materials” (Novozymes North America, Inc., priority 2001, dated 2005)

Tests used:
[1] = Alkaline (NaOH) treatment of disperse dye suspension, UV-vis absorbance of solubilized dye; format: physicochemical; set-up: key: #: Means absorbance was not detectable by UV-vis spectrometer due to the turbidity of the suspension; conditions: in water, [Dye] = 50 mg/L, Table 3
Method: This procedure was repeated for the alkaline treatment at 80° C.

[2] = UV-vis absorbance of disperse dyes dissolved in acetone (reference); format: physicochemical; conditions: dye concentration 50 mg/l
cutinase = conditions: Table 3
Method: 5 mg/ml dye stock (suspension in 20 mM pH8 phosphate buffer) was made for each commercial dye. Since the absorbance of an opaque dye suspension cannot be detected by UV-vis spectrometer, these fives dyes were dissolved in acetone in the concentration of 50˜100 mg/L and the absorbance of each dye solution was measured as reference (see Table 1).
After 10 min. preheating in waterbath, each sample was dosed with 62.5 mg/L cutinase and incubated for 10 min. The samples were then taken out for UV-vis measurement.

CCC(=O)Nc1cc(N(CCOC(C)=O)CCOC(C)=O)ccc1N=Nc1ccc([N+](=O)[O-])cc1Cl [Disperse Red 167]
NaOH Treated (70 C.) Abs@λ_max ([1]; 70 C.): # | NaOH Treated (80 C.) Abs@λ_max ([1]; 80 C.): # | Abs@λ max [2]: 1.23 | effect of cutinase treatment on dye solubility (in words) (cutinase; cutinase treated): increase in dye solubility | Cutinase Treated (70 C.) Abs@λ_max (cutinase; in water, [Dye] = 50 mg/L, λ_max 480 nm): 0.4249 AU
